Measured values reported in US9993494B2, “Compositions and methods for treating fibrotic disease” (eFFECTOR Therapeutics, Inc., priority 2014, dated 2018).

System: normal human lung fibroblasts
Assay: Ribosomal profiling: translational efficiency in TGFβ-treated fibroblasts
Type: cell-based
Conditions: TGFβ-treated fibroblasts
Procedure: Ribosomal profiling allows for measurement of changes in transcription and translation on a genome-wide basis accompanying TGFβ-dependent transformation of fibroblasts to myofibroblasts. Ribosomal profiles of the TGFβ-treated fibroblasts from Example 1 (about 6×10^6 cells/10 cm plate) were prepared and analyzed for changes in translational efficiencies with respect to potential disease-associated cellular changes accompanying this TGFβ-induced transformation.
Briefly, cells were washed with cold PBS supplemented with cycloheximide and lysed with 1× mammalian cell lysis buffer for 10 minutes on ice. Lysates were clarified by centrifugation for 10 minutes at 14,000 rpm and supernatants were collected. Cell lysates were processed to generate ribosomal protected fragments and total mRNA according to the instructions included with the ARTseq Ribosome Profiling Kit (Illumina, San Diego, Calif.). Sequencing of total RNA (RNA) and of ribosome-protected fragments of RNA (RPF) was carried out using RNA-Seq methodology according to the manufacturer's instructions (Illumina). To analyze the ribosomal profiles, RNA-Seq reads were processed with tools from the FASTX-Toolkit (fastq_quality_trimmer, fastx_clipper and fastx_trimmer). Unprocessed and processed reads were evaluated for a variety of quality measures using FastQC, and processed reads were mapped to the human genome using TopHat (see, e.g., Trapnell et al., Bioinformatics 25:1105, 2009). Gene-by-gene assessment of the number of fragments strictly and uniquely mapping to the coding region of each gene was conducted using HTSeq-count, a component of the HTSeq package. […] Genes with low counts in either RPF or RNA were excluded from differential analyses. Pathway and network analyses of differential data were conducted using Ingenuity Pathway Analysis (IPA).

## COC(=O)[C@H]1[C@@H](O)[C@@]2(O)c3c(OC)cc(O[C@@H]4O[C@@H]([C@H](O)CO)CO[C@H]4OC)cc3O[C@@]2(c2ccc(OC)cc2)[C@@H]1c1ccccc1 [Silvestrol]
ENSG00000163682
  renormalizing the translational profile of RPL9: − (− = <0.9)
ENSG00000164292
  renormalizing the translational profile of RHOBTB3: − (− = <0.9)
ENSG00000164588
  renormalizing the translational profile of HCN1: − (− = <0.9)
ENSG00000165502
  renormalizing the translational profile of RPL36AL: − (− = <0.9)
ENSG00000166441
  renormalizing the translational profile of RPL27A: − (− = <0.9)
ENSG00000166503
  renormalizing the translational profile of RP11-382A20.3.1: − (− = <0.9)
ENSG00000166839
  renormalizing the translational profile of ANKDD1A: − (− = <0.9)
ENSG00000167526
  renormalizing the translational profile of RPL13: − (− = <0.9)
ENSG00000167658
  renormalizing the translational profile of EEF2: − (− = <0.9)
ENSG00000169239
  renormalizing the translational profile of CA5B: + (+ = 0.9 to 1.5)
ENSG00000170681
  renormalizing the translational profile of MURC: − (− = <0.9)
ENSG00000170801
  renormalizing the translational profile of HTRA3: − (− = <0.9)
ENSG00000171408
  renormalizing the translational profile of PDE7B: + (+ = 0.9 to 1.5)
ENSG00000171517
  renormalizing the translational profile of LPAR3: + (+ = 0.9 to 1.5)
ENSG00000171793
  renormalizing the translational profile of CTPS: − (− = <0.9)
ENSG00000172053
  renormalizing the translational profile of QARS: − (− = <0.9)
ENSG00000172809
  renormalizing the translational profile of RPL38: − (− = <0.9)
ENSG00000174100
  renormalizing the translational profile of MRPL45: − (− = <0.9)
ENSG00000174444
  renormalizing the translational profile of RPL4: − (− = <0.9)
ENSG00000174748
  renormalizing the translational profile of RPL15: − (− = <0.9)
ENSG00000175084
  renormalizing the translational profile of DES: − (− = <0.9)
ENSG00000175390
  renormalizing the translational profile of EIF3F: − (− = <0.9)
ENSG00000175505
  renormalizing the translational profile of CLCF1: + (+ = 0.9 to 1.5)
ENSG00000176020
  renormalizing the translational profile of AMIGO3: − (− = <0.9)
ENSG00000176438
  renormalizing the translational profile of C14orf49: − (− = <0.9)
ENSG00000177600
  renormalizing the translational profile of RPLP2: − (− = <0.9)
ENSG00000178035
  renormalizing the translational profile of IMPDH2: − (− = <0.9)
ENSG00000178401
  renormalizing the translational profile of DNAJC22: − (− = <0.9)
ENSG00000182899
  renormalizing the translational profile of RPL35A: − (− = <0.9)
ENSG00000182909
  renormalizing the translational profile of LENG9: + (+ = 0.9 to 1.5)
ENSG00000183172
  renormalizing the translational profile of C22orf32: − (− = <0.9)
ENSG00000183971
  renormalizing the translational profile of NPW: − (− = <0.9)
ENSG00000184588
  renormalizing the translational profile of PDE4B: +++ (+++ = >2.0)
ENSG00000185008
  renormalizing the translational profile of ROBO2: − (− = <0.9)
ENSG00000185920
  renormalizing the translational profile of PTCH1: − (− = <0.9)
ENSG00000186184
  renormalizing the translational profile of POLR1D: − (− = <0.9)
ENSG00000187240
  renormalizing the translational profile of DYNC2H1: ++ (++ = 1.5 to 2.0)
ENSG00000188846
  renormalizing the translational profile of RPL14: − (− = <0.9)
ENSG00000188906
  renormalizing the translational profile of LRRK2: − (− = <0.9)
ENSG00000196531
  renormalizing the translational profile of NACA: − (− = <0.9)
ENSG00000196878
  renormalizing the translational profile of LAMB3: + (+ = 0.9 to 1.5)
ENSG00000197111
  renormalizing the translational profile of PCBP2: + (+ = 0.9 to 1.5)
ENSG00000197442
  renormalizing the translational profile of MAP3K5: − (− = <0.9)
ENSG00000197756
  renormalizing the translational profile of RPL37A: − (− = <0.9)
ENSG00000197958
  renormalizing the translational profile of RPL12: − (− = <0.9)
ENSG00000198121
  renormalizing the translational profile of LPAR1: − (− = <0.9)
ENSG00000198242
  renormalizing the translational profile of RPL23A: − (− = <0.9)
ENSG00000198755
  renormalizing the translational profile of RPL10A: − (− = <0.9)
ENSG00000198918
  renormalizing the translational profile of RPL39: − (− = <0.9)
ENSG00000204397
  renormalizing the translational profile of CARD16: + (+ = 0.9 to 1.5)
ENSG00000204520
  renormalizing the translational profile of MICA: − (− = <0.9)
ENSG00000204628
  renormalizing the translational profile of GNB2L1: − (− = <0.9)
ENSG00000215472
  renormalizing the translational profile of RPL17: − (− = <0.9)
ENSG00000229117
  renormalizing the translational profile of RPL41: − (− = <0.9)
ENSG00000241685
  renormalizing the translational profile of ARPC1A: − (− = <0.9)
ENSG00000254772
  renormalizing the translational profile of EEF1G: − (− = <0.9)
Duplicate ribosomal profiles
  number of genes whose translational efficiency was uniquely modulated by the compound: 26 genes
Gene RPS2 (ENSG00000140988)
  effect in renormalizing the translational profile of the gene: − (− = <0.9)
Gene RPS3 (ENSG00000149273)
  effect in renormalizing the translational profile of the gene: − (− = <0.9)
Gene RPS3A (ENSG00000145425)
  effect in renormalizing the translational profile of the gene: − (− = <0.9)
Gene RPS4X (ENSG00000198034)
  effect in renormalizing the translational profile of the gene: − (− = <0.9)
Gene RPS4Y1 (ENSG00000129824)
  effect in renormalizing the translational profile of the gene: − (− = <0.9)
Gene RPS5 (ENSG00000083845)
  effect in renormalizing the translational profile of the gene: − (− = <0.9)
Gene RPS6 (ENSG00000137154)
  effect in renormalizing the translational profile of the gene: − (− = <0.9)
